The text below walks through data of patent US20090030037A1, “Sustained Release Formulation and Dosing Schedules of Leukotriene Synthesis Inhibitor for Human Therapy” (deCODE Genetics ehf., priority 2005, published 2009).

One assay has as its system Lp-PLA2. Briefly: Study DG-031-201: Lp-PLA2. The assay is classed as in vivo, human. The conditions noted are these: 2 lower doses (250 mg/day and 500 mg/day). The procedure:
(§1) Genet. 2004). Apart from FLAP, allele A of the SNP SG12S25 in the LTA4 hydrolase gene, another gene in the LT pathway, is also associated with MI, as described in PCT application no. PCT/US03/32556 and PCT/US04/30582 incorporated by reference.
Patients who met the study eligibility criteria were enrolled and randomized into 3 different dose-level groups: (1) 64 patients on 250 mg/day therapy with DG-031 (250 mg q.d.), vs placebo; (2) 64 patients on 500 mg/day therapy with DG-031 (250 mg b.i.d.) vs placebo; and (3) 63 patients on 750 mg/day therapy with DG-031 (250 mg t.i.d.) vs placebo. […] All patients received 3 tablets per day. Treatment periods, 4 weeks in duration each, were separated by a 2-week washout period. The placebo tablets were identical in shape, color, form and taste to the active tablets except that they contained no active drug ingredients. Treatment with DG-031 or placebo was in addition to the subject's standard care, including all medications and treatment plan as prescribed by the subject's cardiologist prior to enrolment. […]
All data were analyzed according to a pre-established statistical analysis plan (SAP) and by intention-to-treat (ITT). […] The difference between DG-031 and placebo treatment was the primary outcome, assessed separately for each of the biomarkers. […]

The subject of the next assay is CRP. In words: Study DG-031-201: Hs-CRP in serum. In kind it is in vivo, human. The conditions noted are these: for CRP, change: Study 201, 2-6 wks. The procedure: as §1
Patients who met the study eligibility criteria were enrolled and randomized into 3 different dose-level groups: (1) 64 patients on 250 mg/day therapy with DG-031 (250 mg q.d.), vs placebo; (2) 64 patients on 500 mg/day therapy with DG-031 (250 mg b.i.d.) vs placebo; and (3) 63 patients on 750 mg/day therapy with DG-031 (250 mg t.i.d.) vs placebo. […] All patients received 3 tablets per day. Treatment periods, 4 weeks in duration each, were separated by a 2-week washout period. The placebo tablets were identical in shape, color, form and taste to the active tablets except that they contained no active drug ingredients. Treatment with DG-031 or placebo was in addition to the subject's standard care, including all medications and treatment plan as prescribed by the subject's cardiologist prior to enrolment. A total of 191 subjects were enrolled, with 172 completing all 8 visits or 8 patients short of the target of 180 patients.
The primary objective was to determine whether the FLAP inhibitor has a statistically significant effect, compared to placebo, on one or more biomarkers of MI risk, including: (1) ionomycin-induced LTB4 and MPO release by neutrophils ex vivo; (2) MPO, CRP, N-tyrosine, Lp-PLA2 or amyloid A in serum, or (3) LTE4 in urine. The secondary objective was to determine whether the effect of DG-031 was dose-dependent. The tertiary objective was to assess other biomarkers (See Results). Evaluation of safety and tolerability of the drug was also a primary endpoint.
All data were analyzed according to a pre-established statistical analysis plan (SAP) and by intention-to-treat (ITT). Each arm of the study, as well as pooled sets (combining dose levels), was considered for the primary analysis. Each such set is an AB/BA cross-over design and in the primary analysis of efficacy, the levels of biomarkers of MI risk at the end of the treatment periods (visits 4 and 7) were used as primary response variables. The difference between DG-031 and placebo treatment was the primary outcome, assessed separately for each of the biomarkers. Treatment effect was tested using a two-sample t-test on the period differences for suitably transformed response variables, under an assumption of normality of the transformed data. We report treatment effect as one half of the observed mean differences in the two-sample t-test, with a 95% CI. No pre-tests for carry-over effect were performed as a part of the primary analysis. Tests for carry-over were done and are reported separately from results of primary analysis. All hypotheses were tested at a two-sided nominal significance level of 0.05 and p-values based on t-tests are reported. In addition, for the primary efficacy endpoints where the effects of the two highest doses on 10 primary variables were studied, a randomization test was performed which corrects for multiple testing and ensures that the key results are not affected by distributional concerns. In particular, 1 million permutations of the patients into the different study tracks were performed, generating a reference distribution for the maximum of the 10 t-statistics of the biomarkers under the null hypothesis of no drug effect. By comparing the observed t-statistic of each of the 10 biomarkers to this reference distribution, empirical p-values were computed. As was stated in the SAP prior to unblinding, it was considered likely that experimental manipulations would alter the effect of the drug on two of the primary markers; this was indeed the case and we are only reporting directly on 8 of the 10 primary markers but all 10 are included in the randomization test. […]

Each structure is given as a SMILES string.

As for `O=C(O)[C@@H](c1ccc(OCc2ccc3ccccc3n2)cc1)C1CCCC1` [DG-031, (R)-(+)-alpha-cyclopentyl-4-(2-quinolinylmethoxy)-Benzeneacetic acid], the “Effects on Lp-PLA2” value in the assay on Lp-PLA2 is listed as “not significant”. The “Reduction in CRP” value with CRP (250 mg BID and TID, end of wash-out period (week 6)) was determined as 25%. The “CRP, change” value in the assay with CRP (250 mg BID) is given as −24%; in the assay with CRP (250 mg QD), −6%; in the assay on CRP (250 mg TID) it was −13% (St. 201). In addition, the “Carry-over effect, CRP” value in the assay on CRP (difference visit 2 to 5, 500 and 750 mg/day vs placebo) is given as −0.28. For the same compound, in the assay on CRP (higher two dose groups (250 mg BID and 250 mg TID), at 2 weeks, p=0.07), the “Reduction of serum CRP” value was 16%.
